{"source": "patent US10336732B2", "about": "“1-heterocyclyl isochromanyl compounds and analogs for treating CNS disorders” (Sunovion Pharmaceuticals Inc., priority 2015, dated 2019)", "key": {"[1]": {"test_system": "α1 (non-selective)", "experiment": "In vitro radioligand binding assay, α1 (non-selective), [3H]prazosin", "parameters": "concentration or dose not given beside the values", "conditions": "rat cerebral cortex membranes", "description": "(§1) Certain compounds were tested by in vitro binding assays using standard procedures. […] These receptors and assays are well known to those skilled in the art, as exemplified by the following: Abramovitz, M. et al. (2000), Biochem. Biophys. Acta., 1483: 285-293 (EP4, IP (PGI2)); Aharony, D. et al. (1993), Mol. Pharmacol., 44: 356-363 (NK2); Ardati, A. et al. (1997), Mol. Pharmacol., 51: 816-824 (NOP (ORL1)); Bignon, E. et al. (1999), J. Pharmacol. Exp. Ther. 289: 742-751 (CCK1 (CCKA)); Bloomquist, B. T. et al. (1998), Biochem. Biophys. Res. Commun., 243: 474-479 (GAL2); Brockhaus, M. et al. (1990), Proc. Natl. Acad. Sci. U.S.A., 87: 3127-3131 (TNF-α); Brown, G. B. (1986), J. Neurosci., 6: 2064-2070 (Na+ channel (site 2)); Buchan, K. W. et al. (1994), Brit. J. Pharmacol., 112: 1251-1257 (ETA); Cesura, A. M. et al. (1990), Mol. Pharmacol., 37: 358-366 (MAO-A); Choi, D. S. et al. (1994), FEBS Lett., 352: 393-399 (5-HT2B); Clark, A. F. et al. (1996), Invest. Ophtalmol. Vis. Sci., 37: 805-813 (GR); Couvineau, A. et al. (1985), Biochem. J., 231: 139-143 (VPAC1 (VIP1)); Dorje, F. et al. (1991), J. Pharmacol. Exp. Ther., 256: 727-733 (M1, M2, M3, M4); Ferry, G. et al. (2001), Eur. J. Pharmacol., 417: 77-89 (PPARγ); Fuchs, S. et al. (2001), Mol. Med., 7: 115-124 (ETB); Fuhlendorff, J. et al. (1990), Proc. Natl. Acad. Sci. U.S.A., 87: 182-186 (Y2); Ganapathy M E. et al. (1999), J. Pharmacol. Exp. Ther., 289: 251-260 (sigma (non-selective)); Gopalakrishnan, M. et al. (1996), J. Pharmacol. Exp. Ther., 276: 289-297 (N neuronal α4β2); Greengrass, P. and Bremner, R. (1979), Eur. J. Pharmacol., 55: 323-326 (α1 (non-selective)); Grandy, D. K. et al. (1989), Proc. Natl. Acad. Sci. U.S.A., 86: 9762-9766 (D25); Guard, S. et al. (1993), Eur. J. Pharmacol., 240:177-184 (BB (non-selective)); Heuillet, E. et al. (1993), J. Neurochem., 60: 868-876 (NK1, P2X); Hope, A. G. et al. (1996), Brit. J. Pharmacol., 118: 1237-1245 (5-HT3); Hoyer, D. et al. (1985), Eur. J. Pharmacol., 118: 1-12 (5-HT1B); Hugues, M. et al. (1982), J. Biol. Chem., 257: 2762-2769 (5-HT2A, SKCa channel); Joseph, S. S. et al. (2004), Naun.-Sch. Arch. Pharm., 369: 525-532 (β2); Le, M. T. et al. (2005), Eur. J. Pharmacol., 513: 35-45 (AT1); Le Fur, G. et al. (1983), Life Sci., 33: 449-457) (BZD (peripheral); Lee, Y. M. et al. (1993), J. Biol. Chem., 268: 8164-8169 (CCK2 (CCKB)); Leurs, R. et al. (1994), Brit. J. Pharmacol., 112: 847-854 (H2); Levin, M. C. et al. (2002), J. Biol. Chem., 277: 30429-30435 (11); Lewin, A. H. et al. (1989), Mol. Pharmacol., 35: 189-194 (Cl− channel (GABA-gated)); Lukas, R. J. (1986), J. Neurochem., 46: 1936-1941 (N muscle-type); Luthin, D. R. et al. (1995), Mol. Pharmacol., 47: 307-313; (A2A); Mackenzie, R. G. et al. (1994), Eur. J. Pharmacol., 266: 79-85 (D3); Mulheron, J. G. et al. (1994), J. Biol. Chem., 269: 12954-12962 (5-HT1A); Meng, F. et al. (1993), Proc. Natl. Acad. Sci. U.S.A., 90: 9954-9958 (κ (KOP)); Monsma, F. J. et al. (1993), Mol. Pharmacol., 43: 320-327 (5-HT6); Neote, K. et al. (1993), Cell, 72: 415-425 (CCR1); Pacholczyk, T. et al. (1991), Nature, 350: 350-354 (sst (non-selective, norepinephrine transporter)); Peralta, E. G. et al. (1987), Embo. J., 6: 3923-3929 (M3); Pristupa, Z. B. et al. (1994), Mol. Pharmacol., 45: 125-135 (dopamine transporter); Pruneau, D. et al. (1998), Brit. J. Pharmacol., 125: 365-372 (B2); Rees, S. et al. (1994), FEBS Lett., 355: 242-246 (5-HT5a); Reynolds, I. J. et al. (1986), J. Pharmacol. Exp. Ther., 237: 731-738 (Ca2+ channel (L, verapamil site)); Rinaldi-Carmona, M. et al. (1996), J. Pharmacol. Exp. Ther., 278: 871-878 (CB1); Salvatore, C. A. et al. (1993), Proc. Natl. Acad. Sci. U.S.A., 90: 10365-10369 (A3); Sarau, H. M. et al. (1997), J. Pharmacol. Exp. Ther., 281: 1303-1311 (NK3); Schioth, H. B. et al. (1997), Neuropeptides, 31: 565-571 (MC4); Sharples, C. […]"}, "[2]": {"biological_target": "T1, 5-HT2B (Homo sapiens, UniProt P41595)", "T1 construct": "expressed in transfected cells; host or cells: CHO cells", "T1 sequence (P41595 whole entry)": "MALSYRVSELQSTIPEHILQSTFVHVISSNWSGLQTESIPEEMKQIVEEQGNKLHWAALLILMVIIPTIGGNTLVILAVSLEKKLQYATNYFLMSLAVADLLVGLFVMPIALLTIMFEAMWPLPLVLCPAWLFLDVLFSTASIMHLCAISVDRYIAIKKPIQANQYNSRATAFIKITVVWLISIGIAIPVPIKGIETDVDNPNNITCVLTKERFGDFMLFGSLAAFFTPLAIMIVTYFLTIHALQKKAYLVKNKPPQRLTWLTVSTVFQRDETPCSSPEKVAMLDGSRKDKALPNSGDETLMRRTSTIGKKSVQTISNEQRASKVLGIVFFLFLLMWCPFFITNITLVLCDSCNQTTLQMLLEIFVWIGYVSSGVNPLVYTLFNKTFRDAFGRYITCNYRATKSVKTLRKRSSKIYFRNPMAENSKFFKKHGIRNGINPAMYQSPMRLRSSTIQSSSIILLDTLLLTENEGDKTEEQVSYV", "experiment": "In vitro radioligand binding assay, 5-HT2B, [125I](±)DOI", "parameters": "concentration or dose not given beside the values", "conditions": "human recombinant (CHO cells)", "description": "as §1"}}}
{"compound": "Fc1ccc2c(c1)CCO[C@H]2[C@@H]1CCCN1", "note": "[Compound I-9, (S)-2-((R)-6-fluoroisochroman-1-yl)pyrrolidine]", "values": [{"measurement": "α1 percent inhibition of specific binding", "setting": "[1]", "value": 73, "unit": "%"}, {"measurement": "5HT2b percent inhibition of specific binding", "setting": "[2]", "value": 76, "unit": "%"}]}
{"compound": "Clc1ccc2c(c1)[C@H]([C@@H]1CCCN1)OCC2", "note": "[Compound I-29, (S)-2-((R)-7-chloroisochroman-1-yl)pyrrolidine]", "values": [{"measurement": "α1 percent inhibition of specific binding", "setting": "[1]", "value": 69, "unit": "%"}, {"measurement": "5HT2b percent inhibition of specific binding", "setting": "[2]", "value": 80, "unit": "%"}]}
{"compound": "Fc1cccc2c1[C@H]([C@@H]1CCCN1)OCC2", "note": "[Compound I-1, (S)-2-((R)-8-fluoroisochroman-1-yl)pyrrolidine]", "values": [{"measurement": "α1 percent inhibition of specific binding", "setting": "[1]", "value": 55, "unit": "%"}, {"measurement": "5HT2b percent inhibition of specific binding", "setting": "[2]", "value": 79, "unit": "%"}]}
{"compound": "Fc1ccc2c(c1)[C@H]([C@@H]1CCCN1)OCC2", "note": "[Compound I-5, (2S)-2-((R)-7-fluoroisochroman-1-yl)pyrrolidine]", "values": [{"measurement": "α1 percent inhibition of specific binding", "setting": "[1]", "value": 59, "unit": "%"}, {"measurement": "5HT2b percent inhibition of specific binding", "setting": "[2]", "value": 72, "unit": "%"}]}
{"compound": "Fc1cccc2c1CCO[C@@H]2[C@H]1CCN1", "note": "[Compound I-96, (R)-2-((S)-5-fluoroisochroman-1-yl)azetidine]", "values": [{"measurement": "α1 percent inhibition of specific binding", "setting": "[1]", "value": 81, "unit": "%"}, {"measurement": "5HT2b percent inhibition of specific binding", "setting": "[2]", "value": 58, "unit": "%"}]}
{"compound": "Fc1cccc2c1CCO[C@@H]2[C@@H]1CCN1", "note": "[Compound I-94, (S)-2-((S)-5-fluoroisochroman-1-yl)azetidine]", "values": [{"measurement": "α1 percent inhibition of specific binding", "setting": "[1]", "value": 72, "unit": "%"}, {"measurement": "5HT2b percent inhibition of specific binding", "setting": "[2]", "value": 76, "unit": "%"}]}
{"compound": "Fc1cccc2c1[C@H]([C@@H]1CCN1)OCC2", "note": "[Compound I-83, (S)-2-((R)-8-fluoroisochroman-1-yl)azetidine]", "values": [{"measurement": "5HT2b percent inhibition of specific binding", "setting": "[2]", "value": 83, "unit": "%"}]}
{"compound": "Fc1ccc2c(c1)CCO[C@H]2[C@@H]1CCN1", "note": "[Compound I-90, (S)-2-((R)-6-fluoroisochroman-1-yl)azetidine]", "values": [{"measurement": "α1 percent inhibition of specific binding", "setting": "[1]", "value": 64, "unit": "%"}, {"measurement": "5HT2b percent inhibition of specific binding", "setting": "[2]", "value": 77, "unit": "%"}]}
